Reference: ChEMBL document CHEMBL4052800, “Syntheses of cytotoxic novel arctigenin derivatives bearing halogen and alkyl groups on aromatic rings” (Bioorg Med Chem Lett, 2017)
pEC50: −log10 of the molar value.

How the values were obtained:
HL-60 [1] = assay: Cytotoxicity against human HL60 cells assessed as reduction in cell viability after 48 hrs by WST-8 assay relative to control; assay type: functional
HL-60 [2] = assay: Cytotoxicity against human HL60 cells assessed as reduction in cell viability after 48 hrs by WST-8 assay; assay type: functional, cell-based; details: HL-60, 48 h
HeLa = assay: Cytotoxicity against human HeLa cells assessed as reduction in cell viability after 48 hrs by WST-8 assay; assay type: functional, cell-based

Row | SMILES | inhibition (INH) (HL-60 [1]) | pEC50 (HL-60 [2]) | pEC50 (HeLa)
1 | O=C1OC[C@H](Cc2ccccc2)[C@H]1Cc1cccc(O)c1 | 45% | < 4.00 | –
2 | Cc1cccc(C[C@H]2C(=O)OC[C@@H]2Cc2ccccc2)c1 | – | 4.28 | –
3 | Oc1ccccc1C[C@H]1COC[C@@H]1Cc1ccc(Cl)c(Cl)c1 | – | 4.47 | –
4 | CCCCOc1ccccc1C[C@H]1COC[C@@H]1Cc1ccc(Cl)c(Cl)c1 | – | 4.70 | –
5 | Cc1ccccc1C[C@H]1COC(=O)[C@@H]1Cc1ccc(Cl)c(Cl)c1 | – | 4.66 | –
6 | O=C1OC[C@H](Cc2ccccc2)[C@H]1Cc1ccccc1F | – | 4.14 | –
7 | Cc1ccc(C[C@H]2C(=O)OC[C@@H]2Cc2ccccc2)cc1 | – | 4.36 | –
8 | Oc1cccc(C[C@H]2COC[C@@H]2Cc2ccc(Cl)c(Cl)c2)c1 | – | 4.51 | –
9 | Clc1ccc(C[C@H]2COC[C@@H]2Cc2ccc3c(c2)OCCO3)cc1Cl | – | 4.42 | –
10 | CCCCOc1ccc(C[C@H]2C(=O)OC[C@@H]2Cc2ccccc2)cc1OCCCC | 29% | < 4.00 | –
11 | Cc1ccc(C[C@H]2COC(=O)[C@@H]2Cc2ccc(Cl)c(Cl)c2)cc1C | – | 4.80 | –
12 | COc1ccc(C[C@H]2COC(=O)[C@@H]2Cc2ccc(Cl)c(Cl)c2)cc1OC | – | 4.62 | –
13 | CCCCCCCOc1ccccc1C[C@H]1C(=O)OC[C@@H]1Cc1ccccc1 | – | 4.12 | –
14 | CCCCOc1cc(C[C@H]2C(=O)OC[C@@H]2Cc2ccccc2)ccc1O | – | 4.46 | –
15 | CCCCCCCOc1cccc(C[C@H]2C(=O)OC[C@@H]2Cc2ccccc2)c1 | – | 4.09 | –
16 | COc1ccc(C[C@H]2COC[C@@H]2Cc2ccc(Cl)c(Cl)c2)cc1O | – | 4.48 | –
17 | Cc1ccc(C[C@H]2COC[C@@H]2Cc2ccc(Cl)c(Cl)c2)cc1 | – | 4.68 | –
18 | COc1ccc(C[C@H]2COC(=O)[C@@H]2Cc2ccc(Cl)c(Cl)c2)cc1 | – | 4.43 | –
19 | CCCCOc1ccc(/C=C2\C(=O)OC[C@@H]2Cc2ccccc2)cc1 | – | 4.24 | –
20 | O=C1OC[C@H](Cc2ccccc2)[C@H]1Cc1cccc(F)c1 | – | 4.12 | –
21 | COc1cccc(C[C@H]2C(=O)OC[C@@H]2Cc2ccccc2)c1 | – | 4.18 | –
22 | COc1ccc(C[C@H]2C(=O)OC[C@@H]2Cc2ccccc2)cc1 | – | 4.17 | –
23 | Clc1ccc(C[C@H]2COC[C@@H]2Cc2ccc(Cl)c(Cl)c2)cc1Cl | – | 4.80 | –
24 | CCCCOc1ccc(C[C@H]2C(=O)OC[C@@H]2Cc2ccccc2)cc1 | – | 4.64 | 4.57
25 | Cc1ccccc1C[C@H]1COC[C@@H]1Cc1ccc(Cl)c(Cl)c1 | – | 4.68 | –

Row | SMILES | inhibition (INH) (HL-60 [1]) | pEC50 (HL-60 [2]) | pEC50 (HeLa)
26 | Clc1ccc(C[C@H]2COC[C@@H]2Cc2ccc3c(c2)OCO3)cc1Cl | – | 4.66 | –
27 | O=C1OC[C@H](Cc2ccccc2)[C@H]1Cc1cc(Cl)cc(Cl)c1 | – | 4.64 | 4.77
28 | COc1ccc(C[C@H]2COC[C@@H]2Cc2ccc(Cl)c(Cl)c2)cc1 | – | 4.41 | –
29 | Cc1ccccc1C[C@H]1C(=O)OC[C@@H]1Cc1ccccc1 | – | 4.24 | –
30 | CCCCOc1ccccc1C[C@H]1C(=O)OC[C@@H]1Cc1ccccc1 | – | 4.70 | –
31 | O=C1OC[C@H](Cc2ccc(F)cc2)[C@H]1Cc1ccc(Cl)c(Cl)c1 | – | 4.85 | 4.72
32 | COc1cc(C[C@H]2COC(=O)[C@@H]2Cc2ccc(Cl)c(Cl)c2)ccc1O | – | 4.44 | –
33 | O=C1OC[C@H](Cc2ccccc2)[C@H]1Cc1ccccc1C(F)(F)F | – | 4.43 | –
34 | O=C1OC[C@H](Cc2ccccc2)[C@H]1Cc1ccc(Cl)cc1 | – | 4.44 | –
35 | O=C1OC[C@H](Cc2ccccc2)[C@H]1Cc1ccc2c(c1)OCO2 | – | 4.24 | –
36 | Fc1ccc(C[C@H]2COC[C@@H]2Cc2ccc(Cl)c(Cl)c2)cc1 | – | 4.37 | –
37 | CCCCc1ccc(C[C@H]2COC(=O)[C@@H]2Cc2ccc(Cl)c(Cl)c2)cc1 | – | 5.03 | 4.57
38 | O=C1OC[C@H](Cc2ccccc2)[C@H]1Cc1ccccc1O | – | 4.08 | –
39 | COc1cccc(C[C@H]2COC(=O)[C@@H]2Cc2ccc(Cl)c(Cl)c2)c1 | – | 4.47 | –
40 | O=C1OC[C@H](Cc2ccccc2)[C@H]1Cc1ccc(F)cc1 | – | 4.24 | –
41 | O=C1OC[C@H](Cc2cccc(O)c2)[C@H]1Cc1ccc(Cl)c(Cl)c1 | – | 4.32 | –
42 | CCCCOc1ccc(C[C@H]2COC[C@@H]2Cc2ccccc2)cc1 | – | 4.96 | –
43 | CCc1ccc(C[C@H]2COC(=O)[C@@H]2Cc2ccc(Cl)c(Cl)c2)cc1 | – | 4.80 | –
44 | Cc1ccc(C[C@H]2COC[C@@H]2Cc2ccc(Cl)c(Cl)c2)cc1C | – | 4.44 | –
45 | C[C@H](Cc1ccccc1)[C@H](C)Cc1ccc(Cl)c(Cl)c1 | – | 4.72 | –
46 | O=C1OC[C@H](Cc2ccccc2)[C@H]1Cc1cccc(OC(F)(F)F)c1 | – | 4.47 | –
47 | O=C1OC[C@H](Cc2ccccc2O)[C@H]1Cc1ccc(Cl)c(Cl)c1 | – | 4.48 | –
48 | Cc1cccc(C[C@H]2COC(=O)[C@@H]2Cc2ccc(Cl)c(Cl)c2)c1 | – | 4.66 | –
49 | O=C1OC[C@H](Cc2ccccc2)[C@H]1Cc1ccc(OC(F)(F)F)cc1 | – | 4.57 | –
50 | CCOc1ccccc1C[C@H]1COC[C@@H]1Cc1ccc(Cl)c(Cl)c1 | – | 4.54 | –

Row | SMILES | inhibition (INH) (HL-60 [1]) | pEC50 (HL-60 [2]) | pEC50 (HeLa)
51 | O=C1OC[C@H](Cc2ccccc2F)[C@H]1Cc1ccc(Cl)c(Cl)c1 | – | 4.55 | –
52 | O=C1OC[C@H](Cc2ccccc2)[C@H]1Cc1ccc(Cl)c(Cl)c1 | – | 4.72 | 4.59
53 | Fc1cccc(C[C@H]2COC[C@@H]2Cc2ccc(Cl)c(Cl)c2)c1 | – | 4.70 | –
54 | O=C1OC[C@H](Cc2ccccc2)[C@H]1Cc1ccccc1 | – | 4.11 | –
55 | O=C1OC[C@H](Cc2ccc(Cl)c(Cl)c2)[C@H]1Cc1ccc(Cl)c(Cl)c1 | – | 4.70 | –
56 | O=C1OC[C@H](Cc2ccccc2)[C@H]1Cc1ccccc1Cl | – | 4.43 | –
57 | O=C1OC[C@H](Cc2ccccc2)[C@H]1Cc1ccc(C(F)(F)F)cc1 | – | 4.66 | 4.54
58 | CCCCc1ccc(C[C@H]2COC[C@@H]2Cc2ccc(Cl)c(Cl)c2)cc1 | – | 4.64 | –
59 | O=C1OC[C@H](Cc2ccccc2)[C@H]1Cc1ccccc1OC(F)(F)F | – | 4.41 | –
60 | COc1ccc(C[C@H]2C(=O)OC[C@@H]2Cc2ccccc2)cc1OC | 38% | < 4.00 | –
61 | O=C1OC[C@H](Cc2ccc3c(c2)OCO3)[C@H]1Cc1ccc(Cl)c(Cl)c1 | – | 4.29 | –
62 | COc1ccccc1C[C@H]1C(=O)OC[C@@H]1Cc1ccccc1 | – | 4.10 | –
63 | CCCCOc1cccc(C[C@H]2C(=O)OC[C@@H]2Cc2ccccc2)c1 | – | 4.59 | –
64 | CCOc1ccccc1C[C@H]1COC(=O)[C@@H]1Cc1ccc(Cl)c(Cl)c1 | – | 4.82 | 4.51
65 | O=C1OC[C@H](Cc2ccccc2)[C@H]1Cc1cccc(C(F)(F)F)c1 | – | 4.47 | –
66 | COc1cc(C[C@H]2COC[C@@H]2Cc2ccc(Cl)c(Cl)c2)ccc1O | – | 4.68 | –
67 | O=C1OC[C@H](Cc2ccc(O)cc2)[C@H]1Cc1ccc(Cl)c(Cl)c1 | – | 4.43 | –
68 | O=C1OC[C@H](Cc2ccccc2)[C@H]1Cc1ccc(O)cc1 | – | 4.06 | –
69 | COc1cccc(C[C@H]2COC[C@@H]2Cc2ccc(Cl)c(Cl)c2)c1 | – | 4.14 | –
70 | COc1cc(C[C@@H]2COC(=O)[C@H]2Cc2ccc(O)c(OC)c2)ccc1O | – | < 4.00 | < 4.00
71 | O=C1OC[C@H](Cc2ccc3c(c2)OCCO3)[C@H]1Cc1ccc(Cl)c(Cl)c1 | – | 4.55 | –
72 | CCCCCCCOc1ccc(C[C@H]2C(=O)OC[C@@H]2Cc2ccccc2)cc1 | 17% | < 4.00 | –
73 | O=C1OC[C@H](Cc2ccccc2)[C@H]1Cc1ccc(Cl)cc1Cl | – | 4.72 | 4.64
74 | COc1cc(C[C@H]2C(=O)OC[C@@H]2Cc2ccccc2)ccc1O | – | 4.03 | –
75 | Oc1ccc(C[C@H]2COC[C@@H]2Cc2ccc(Cl)c(Cl)c2)cc1 | – | 4.51 | –

Row | SMILES | inhibition (INH) (HL-60 [1]) | pEC50 (HL-60 [2]) | pEC50 (HeLa)
76 | COc1ccc(C[C@H]2COC(=O)[C@@H]2Cc2ccc(Cl)c(Cl)c2)cc1O | – | 4.49 | –
77 | Clc1ccc(C[C@H]2COC[C@@H]2Cc2ccccc2)cc1Cl | – | 4.72 | –
78 | O=C1OC[C@H](Cc2ccccc2)[C@H]1Cc1cccc(Cl)c1 | – | 4.44 | –
79 | COc1cc(C[C@H]2C(=O)OC[C@@H]2Cc2ccccc2)cc(OC)c1OC | 44% | < 4.00 | –
80 | Cc1ccc(C[C@H]2COC(=O)[C@@H]2Cc2ccc(Cl)c(Cl)c2)cc1 | – | 4.72 | –
81 | COc1ccccc1C[C@H]1COC[C@@H]1Cc1ccc(Cl)c(Cl)c1 | – | 4.26 | –
82 | Fc1ccc(C[C@H]2COC[C@@H]2Cc2ccc(Cl)c(Cl)c2)cc1F | – | 4.74 | –
83 | COc1ccc(C[C@H]2COC[C@@H]2Cc2ccc(Cl)c(Cl)c2)cc1OC | – | 4.80 | –
84 | COc1ccccc1C[C@H]1COC(=O)[C@@H]1Cc1ccc(Cl)c(Cl)c1 | – | 4.85 | 4.62
85 | Fc1ccccc1C[C@H]1COC[C@@H]1Cc1ccc(Cl)c(Cl)c1 | – | 4.29 | –
86 | COCOc1ccc(C[C@H]2C(=O)OC[C@@H]2Cc2ccccc2)cc1 | – | 4.15 | –
87 | O=C1OC[C@H](Cc2ccccc2)[C@H]1Cc1ccc(F)c(F)c1 | – | 4.30 | –
88 | Cc1cccc(C[C@H]2COC[C@@H]2Cc2ccc(Cl)c(Cl)c2)c1 | – | 4.55 | –
89 | Cc1ccc(C[C@H]2C(=O)OC[C@@H]2Cc2ccccc2)cc1C | – | 4.46 | –
90 | O=C1OC[C@H](Cc2ccc(F)c(F)c2)[C@H]1Cc1ccc(Cl)c(Cl)c1 | – | 4.60 | –
91 | COCOc1ccccc1C[C@H]1C(=O)OC[C@@H]1Cc1ccccc1 | – | 4.12 | –
92 | CCCCOc1ccc(/C=C2/C(=O)OC[C@@H]2Cc2ccccc2)cc1 | 36% | < 4.00 | –
93 | COCOc1cccc(C[C@H]2C(=O)OC[C@@H]2Cc2ccccc2)c1 | – | 4.10 | –
94 | CCc1ccc(C[C@H]2COC[C@@H]2Cc2ccc(Cl)c(Cl)c2)cc1 | – | 4.59 | –
95 | O=C1OC[C@H](Cc2cccc(F)c2)[C@H]1Cc1ccc(Cl)c(Cl)c1 | – | 4.85 | 4.70
96 | CCCCOc1ccccc1C[C@H]1COC(=O)[C@@H]1Cc1ccc(Cl)c(Cl)c1 | – | 5.00 | < 4.00
97 | COc1cc(C[C@@H](C)[C@H](C)Cc2ccc(O)c(OC)c2)ccc1O [(-)-DIHYDROGUAIARETICACID] | – | 4.59 | 4.66
98 | COc1cc(C[C@H]2C(=O)OC[C@@H]2Cc2ccc(OC)c(OC)c2)ccc1O [ARCTIGENIN] | – | 4.92 | < 4.00
99 | COc1cc(C[C@H]2COC(=O)[C@@H]2Cc2ccc(O)c(OC)c2)ccc1O [MATAIRESINOL] | – | 4.13 | < 4.00
